Six molecules from patent US6093409A (Societe L'Oreal S.A., priority 1996, dated 2000) can be followed below.

SMILES strings stand for the structures.

The first test is described as follows: "Hp-squalene" anti(singlet oxygen ^1 O2) test. It counts as biochemical. To be noted: 0.03% solutions.
Consider `CC1=C(/C=C/C(C)=C/C=C/C(C)=C/C=C/C=C(C)/C=C/C=C(C)/C=C/C2=C(C)CCCC2(C)C)C(C)(C)CCC1` [β-Carotene], for which the “% INHIBITION” value is reported as 62%. Same read-out and setting: in the case of `C[C@@H]1O[C@@H](OC[C@H]2O[C@@H](Oc3c(-c4ccc(O)c(O)c4)oc4cc(O)cc(O)c4c3=O)[C@H](O)[C@@H](O)[C@@H]2O)[C@H](O)[C@H](O)[C@H]1O` [Rutin] it was 51%; in that of `COc1cc2c(CCNC(C)=O)c[nH]c2cc1O` [6-Hydroxymelatonin], approximately 78%; in that of `CC1=C(/C=C/C(C)=C/C=C/C(C)=C/C=C/C=C(C)/C=C/C=C(C)/C=C/C2=C(C)C(=O)[C@@H](O)CC2(C)C)C(C)(C)C[C@H](O)C1=O` [Astaxanthin], 34%. For the molecule `CC1=C(/C=C/C(C)=C/C=C/C(C)=C/C=C/C=C(C)/C=C/C=C(C)/C=C/C2=C(C)C(=O)CCC2(C)C)C(C)(C)CCC1=O` [Cantaxanthin], the “% INHIBITION” value is 67%. `O=c1c(O)c(-c2ccc(O)c(O)c2)oc2cc(O)cc(O)c12` [Quercetin]: the “% INHIBITION” value amounted to 72%.

Staying with this test, now noted: 0.03% solutions, comparison in words.
On to `COc1cc2c(CCNC(C)=O)c[nH]c2cc1O` [6-Hydroxymelatonin], for which the “percentage of inhibition compared with melatonin and the other reference singlet-oxygen inhibitors” value is “higher than that obtained for melatonin and the other reference singlet-oxygen inhibitors”.
